According to patent US10179771B2 (GALAPAGOS NV, priority 2014, dated 2019):

Assays:
[1] = target: T1, Recombinant human JAK3 catalytic domain (Homo sapiens, UniProt P52333); experiment: JAK3 inhibition assay; format: biochemical
T1 construct: Recombinant human JAK3 catalytic domain (amino acids 781-1124; catalog number PV3855); purchased Invitrogen PV3855
Method: Recombinant human JAK3 catalytic domain (amino acids 781-1124; catalog number PV3855) was purchased from Invitrogen. 0.5 ng JAK3 protein was incubated with 2.5 μg polyGT substrate (Sigma catalog number P0275) in kinase reaction buffer (25 mM Tris pH 7.5, 0.5 mM EGTA, 10 mM MgCl2, 2.5 mM DTT, 0.5 mM Na3VO4, 5 mM b-glycerolphosphate, 0.01% Triton X-100, 1 μM non-radioactive ATP, […] ^33P-gamma-ATP (GE Healthcare, catalog number AH9968) final concentrations) with or without 5 μL containing test compound or vehicle (DMSO, 1% final concentration), in a total volume of 25 μL, in a polypropylene 96-well plate (Greiner, V-bottom). After 45 min at 30° C., reactions were stopped by adding 25 μL/well of 150 mM phosphoric acid. All of the terminated kinase reaction was transferred to prewashed (75 mM phosphoric acid) 96 well filter plates (Perkin Elmer catalog number 6005177) using a cell harvester (Perkin Elmer). Plates were washed 6 times with 300 μL per well of a 75 mM phosphoric acid solution and the bottom of the plates was sealed. 40 μL/well of Microscint-20 was added, the top of the plates was sealed and readout was performed using the Topcount (Perkin Elmer). Kinase activity was calculated by subtracting counts per min (cpm) obtained in the presence of a positive control inhibitor (10 μM staurosporine) from cpm obtained in the presence of vehicle. The ability of a test compound to inhibit this activity was determined as:
[formula] • RFU test compound=RFU determined for sample with test compound present • RFU control=RFU determined for sample with positive control inhibitor • RFU vehicle=RFU determined in the presence of vehicle
(§1) Dose dilution series were prepared for the compounds enabling the testing of dose-response effects in the JAK3 assay and the calculation of the IC50 for each compound. Each compound was routinely tested at concentration of 20 μM followed by a 1/5 serial dilution, 10 points in a final concentration of 1% DMSO. When potency of compound series increased, more dilutions were prepared and/or the top concentration was lowered (e.g. 5 μM, 1 μM).

[2] = target: T2, Recombinant human TYK2 catalytic domain (Homo sapiens, UniProt P29597); experiment: TYK2 inhibition assay; format: biochemical
T2 construct: Recombinant human TYK2 catalytic domain (amino acids 871-1187; catalog number 08-147); purchased Carna biosciences 08-147
T2 sequence (P29597 871-1187): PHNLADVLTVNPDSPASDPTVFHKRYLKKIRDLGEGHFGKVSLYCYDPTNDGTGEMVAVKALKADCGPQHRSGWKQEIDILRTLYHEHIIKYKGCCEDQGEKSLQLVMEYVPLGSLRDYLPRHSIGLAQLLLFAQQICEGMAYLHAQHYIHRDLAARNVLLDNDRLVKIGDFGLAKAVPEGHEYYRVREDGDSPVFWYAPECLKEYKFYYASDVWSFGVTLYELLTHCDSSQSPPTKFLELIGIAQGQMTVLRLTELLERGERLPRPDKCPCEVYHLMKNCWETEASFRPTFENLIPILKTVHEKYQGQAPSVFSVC
Method: Recombinant human TYK2 catalytic domain (amino acids 871-1187; catalog number 08-147) was purchased from Carna biosciences. 5 ng of TYK2 was incubated with 12.5 μg polyGT substrate (Sigma catalog number P0275) in kinase reaction buffer (25 mM Hepes pH 7.2, 50 mM NaCl, 0.5 mM EDTA, 1 mM DTT, 5 mM MnCl2, 10 mM MgCl2, 0.1% Brij-35, 0.1 μM non-radioactive ATP, 0.125 μCi ^33P-gamma-ATP (GE Healthcare, catalog number AH9968) final concentrations) with or without 5 μL containing test compound or vehicle (DMSO, 1% final concentration), in a total volume of 25 μL, in a polypropylene 96-well plate (Greiner, V-bottom). After 90 min at 30° C., reactions were stopped by adding 25 μL/well of 150 mM phosphoric acid. All of the terminated kinase reaction was transferred to prewashed (75 mM phosphoric acid) 96 well filter plates (Perkin Elmer catalog number 6005177) using a cell harvester (Perkin Elmer). Plates were washed 6 times with 300 μL per well of a 75 mM phosphoric acid solution and the bottom of the plates was sealed. 40 μL/well of Microscint-20 was added, the top of the plates was sealed and readout was performed using the Topcount (Perkin Elmer). Kinase activity was calculated by subtracting counts per min (cpm) obtained in the presence of a positive control inhibitor (10 μM staurosporine) from cpm obtained in the presence of vehicle. The ability of a test compound to inhibit this activity was determined as: Percentage inhibition=((cpm determined for sample with test compound present−cpm determined for sample with positive control inhibitor) divided by (cpm determined in the presence of vehicle−cpm determined for sample with positive control inhibitor))*100.
as §1, with “TYK2” for “JAK3”, “1/3” for “1/5”, “8” for “10”, “points (20 μM-6.67 μM-2.22 μM-740 nM-247 nM-82 nM-27 nM-9 nM)” for “points”

[3] = Illustrative Compounds of the invention (Table IX)
[4] = Illustrative Compounds of the invention (Table XI)
[5] = Comparative Compounds (Table X)
[6] = Comparative Compounds (Table XII)

T1 sequence (P52333 781-1124): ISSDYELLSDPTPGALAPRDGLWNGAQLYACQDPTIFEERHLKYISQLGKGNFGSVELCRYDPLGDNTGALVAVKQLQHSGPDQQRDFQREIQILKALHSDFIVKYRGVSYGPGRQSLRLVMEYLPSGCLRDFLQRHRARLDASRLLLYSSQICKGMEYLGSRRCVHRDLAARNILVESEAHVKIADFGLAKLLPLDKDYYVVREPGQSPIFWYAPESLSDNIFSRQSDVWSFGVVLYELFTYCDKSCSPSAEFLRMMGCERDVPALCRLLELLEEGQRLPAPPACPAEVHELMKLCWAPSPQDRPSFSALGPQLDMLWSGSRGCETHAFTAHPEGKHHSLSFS

CCc1cc(C#N)cc(F)c1N(C)c1cc(NC(=O)[C@@H]2C[C@@H]2F)c2ncn(C)c2c1 (racemic) [Cpd 7, N-(6-((4-cyano-2-ethyl-6-fluorophenyl)(methyl)amino)-1-methyl-1H-benzo[d]imidazol-4-yl)-2-fluorocyclopropanecarboxamide (1S,2S)/(1R,2R) racemic mixture]
IC50 [1, 3]: 0.1 to 50 nM | IC50 [2, 4]: 0.1 to 50 nM

CN(c1cc(NC(=O)[C@H]2C[C@H]2F)c2ncn(C)c2c1)c1ccc(S(C)(=O)=O)cc1F [Cpd 17, (1R,2R)-2-fluoro-N-[6-(2-fluoro-N-methyl-4-methylsulfonyl-anilino)-1-methyl-benzimidazol-4-yl]cyclopropanecarboxamide]
IC50 [1, 3]: > 500 nM | IC50 [2, 4]: 100 to 500 nM

CCc1cc(S(C)(=O)=O)ncc1N(C)c1cc(NC(=O)C2CC2)c2ncn(C)c2c1 [Cpd 18, N-[6-[(4-ethyl-6-methylsulfonyl-3-pyridyl)-methyl-amino]-1-methyl-benzimidazol-4-yl]cyclopropanecarboxamide]
IC50 [1, 3]: 100 to 500 nM | IC50 [2, 4]: 0.1 to 50 nM

CCc1cc(C#N)cc(F)c1N(C)c1cc(NC(=O)OC)c2ncn(C)c2c1 [Cpd 5, methyl 6-((4-cyano-2-ethyl-6-fluorophenyl)(methyl)amino)-1-methyl-1H-benzo[d]imidazol-4-ylcarbamate]
IC50 [1, 3]: 50 to 100 nM | IC50 [2, 4]: 0.1 to 50 nM

CN(c1ccc2ncn(C)c2c1)c1ccc(C#N)cc1F [C, 3-fluoro-4-[methyl-(3-methylbenzimidazol-5-yl)amino]benzonitrile, reference compound]
IC50 [1, 5]: > 500 nM | IC50 [2, 6]: > 500 nM

Cc1cc(C#N)ncc1Oc1cc(NC(=O)C2CC2)c2ncn(C)c2c1 [Cpd 23, N-[6-[(6-cyano-4-methyl-3-pyridyl)oxy]-1-methyl-benzimidazol-4-yl]cyclopropanecarboxamide]
IC50 [1, 3]: > 500 nM | IC50 [2, 4]: 0.1 to 50 nM

CN(c1cc(NC(=O)[C@H]2C[C@H]2F)c2ncn(C)c2c1)c1ccc(C#N)nc1F [Cpd 14, (1R,2R)-N-[6-[(6-cyano-2-fluoro-3-pyridyl)-methyl-amino]-1-methyl-benzimidazol-4-yl]-2-fluoro-cyclopropanecarboxamide]
IC50 [1, 3]: 100 to 500 nM | IC50 [2, 4]: 0.1 to 50 nM

Cc1cc(S(C)(=O)=O)cc(F)c1N(C)c1cc(NC(=O)[C@H]2C[C@H]2F)c2ncn(C)c2c1 [Cpd 16, (1R,2R)-2-fluoro-N-[6-(2-fluoro-N,6-dimethyl-4-methylsulfonyl-anilino)-1-methyl-benzimidazol-4-yl]cyclopropanecarboxamide]
IC50 [1, 3]: 50 to 100 nM | IC50 [2, 4]: 0.1 to 50 nM

Cc1cc(F)ncc1N(C)c1cc(NC(=O)[C@H]2C[C@H]2F)c2ncn(C)c2c1 [Cpd 12, (1R,2R)-2-fluoro-N-[6-[(6-fluoro-4-methyl-3-pyridyl)-methyl-amino]-1-methyl-benzimidazol-4-yl]cyclopropanecarboxamide]
IC50 [1, 3]: 100 to 500 nM | IC50 [2, 4]: 0.1 to 50 nM

Cc1cnc(C#N)c(F)c1N(C)c1cc(NC(=O)[C@H]2C[C@H]2F)c2ncn(C)c2c1 [Cpd 22, (1R,2R)-N-[6-[(2-cyano-3-fluoro-5-methyl-4-pyridyl)-methyl-amino]-1-methyl-benzimidazol-4-yl]-2-fluoro-cyclopropanecarboxamide]
IC50 [1, 3]: 100 to 500 nM | IC50 [2, 4]: 0.1 to 50 nM

CN(c1cc2c(cn1)ncn2C)c1ccc(C#N)cc1F [D, reference compound]
IC50 [1, 5]: > 500 nM | IC50 [2, 6]: > 500 nM

Cc1cc(C#N)ncc1Oc1cc(NC(=O)NC(C)C)c2ncn(C)c2c1 [Cpd 38, 1-[6-[(6-cyano-4-methyl-3-pyridyl)oxy]-1-methyl-benzimidazol-4-yl]-3-isopropyl-urea]
IC50 [1, 3]: > 500 nM | IC50 [2, 4]: 100 to 500 nM

CCS(=O)(=O)c1ccc(N(C)c2cc(NC(=O)[C@H]3C[C@H]3F)c3ncn(C)c3c2)c(C)c1 [Cpd 27, (1R,2R)-N-[6-(4-ethylsulfonyl-N,2-dimethyl-anilino)-1-methyl-benzimidazol-4-yl]-2-fluoro-cyclopropanecarboxamide]
IC50 [1, 3]: 100 to 500 nM | IC50 [2, 4]: 0.1 to 50 nM

Cc1cc(S(C)(=O)=O)ccc1N(C)c1cc(NC(=O)[C@H]2C[C@H]2F)c2ncn(C)c2c1 [Cpd 26, (1R,2R)-N-[6-(N,2-dimethyl-4-methylsulfonyl-anilino)-1-methyl-benzimidazol-4-yl]-2-fluoro-cyclopropanecarboxamide]
IC50 [1, 3]: 100 to 500 nM | IC50 [2, 4]: 0.1 to 50 nM

CCc1cc(C#N)ncc1N(C)c1cc(NC(=O)OC)c2ncn(C)c2c1 [Cpd 4, methyl 6-((6-cyano-4-ethylpyridin-3-yl)(methyl)amino)-1-methyl-1H-benzo[d]imidazol-4-ylcarbamate]
IC50 [1, 3]: 100 to 500 nM | IC50 [2, 4]: 0.1 to 50 nM

CCc1cc(C#N)cc(F)c1Nc1cc(NC(=O)C2CC2)c2ncn(C)c2c1 [Cpd 2, N-(6-(4-cyano-2-ethyl-6-fluorophenylamino)-1-methyl-1H-benzo[d]imidazol-4-yl)cyclopropanecarboxamide]
IC50 [1, 3]: 0.1 to 50 nM | IC50 [2, 4]: 0.1 to 50 nM

CCc1cc(C#N)ncc1Oc1cc(NC(=O)[C@H]2C[C@H]2F)c2ncn(C)c2c1 [Cpd 6, (1R,2R)-N-[6-[(6-cyano-4-ethyl-3-pyridyl)oxy]-1-methyl-benzimidazol-4-yl]-2-fluoro-cyclopropanecarboxamide]
IC50 [1, 3]: > 500 nM | IC50 [2, 4]: 0.1 to 50 nM

CCc1cc(S(C)(=O)=O)ncc1Oc1cc(NC(=O)C2CC2)c2ncn(C)c2c1 [Cpd 29, N-[6-[(4-ethyl-6-methylsulfonyl-3-pyridyl)oxy]-1-methyl-benzimidazol-4-yl]cyclopropanecarboxamide]
IC50 [1, 3]: > 500 nM | IC50 [2, 4]: 100 to 500 nM

Cc1cc(C#N)ncc1Oc1cc(N(C)C)c2ncn(C)c2c1 [Cpd 35, 5-[7-(dimethylamino)-3-methyl-benzimidazol-5-yl]oxy-4-methyl-pyridine-2-carbonitrile]
IC50 [1, 3]: > 500 nM | IC50 [2, 4]: > 500 nM

Cc1cc(C#N)ncc1Oc1cc(NC(=O)N2CCOCC2)c2ncn(C)c2c1 [Cpd 37, N-[6-[(6-cyano-4-methyl-3-pyridyl)oxy]-1-methyl-benzimidazol-4-yl]morpholine-4-carboxamide]
IC50 [1, 3]: > 500 nM | IC50 [2, 4]: > 500 nM

Cc1cc(C#N)ncc1N(C)c1cc(NC(=O)[C@H]2C[C@H]2F)c2ncn(C)c2c1 [Cpd 9, (1R,2R)-N-(6-((6-cyano-4-methylpyridin-3-yl)(methyl)amino)-1-methyl-1H-benzo[d]imidazol-4-yl)-2-fluorocyclopropanecarboxamide]
IC50 [1, 3]: 100 to 500 nM | IC50 [2, 4]: 0.1 to 50 nM

CN(c1cc(NC(=O)[C@H]2C[C@H]2F)c2ncn(C)c2c1)c1c(F)cc(C#N)cc1Cl [Cpd 11, (1R,2R)-N-[6-(2-chloro-4-cyano-6-fluoro-N-methyl-anilino)-1-methyl-benzimidazol-4-yl]-2-fluoro-cyclopropanecarboxamide]
IC50 [1, 3]: 100 to 500 nM | IC50 [2, 4]: 0.1 to 50 nM
